The values that follow come from patent EP0377044B1, “PROTECTIVE AGENT FOR RADIATION HAZARD” (MITSUI TOATSU CHEMICALS, Inc., priority 1988, dated 1989).

Format in all cases: in vivo
One data set relates to ddy male mice. Put plainly: Toxicity test, repeated subcutaneous administration to mice. The conditions noted are these: for toxicity: five ddy male mice of 5 weeks old. From the text: Thus, the medicament of the present invention is a safe medicament of extremely low toxicity and can be administered for a long period of time.
The test system of data set [1] is radiation-induced cancers in mice. Put plainly: Development of radiation-induced cancers in irradiated mice. The conditions noted are these: administration over a certain period.
For another data set, the system named is mice. Put plainly: Whole body X-irradiation, % survival over thirty days (general description). On the procedure:
The effect of the radioprotective agent of the present invention is confirmed by the experiments as described below. Thus, mice, rats, guinea pigs or the like mammals were subjected to whole body irradiation, using a X-radiation unit (Shimazu Seisaku-sho, Shin-Ai 250 II), to determine % survival over a period of thirty days. In carrying out these experiments, given amounts of the nonapeptide were administered by different routes of administration, such as intraperitoneal, intravenous, intramuscular, subcutaneous or oral route of administration, either every day or every other day over a given period of time from before or from immediately after the irradiation, to measure the body-weight of the animals and observe whether they were alive or dead.

Data set [2] can be described thus: Body weight measurement of 600R-irradiated mice. Conditions: for body weight (g) [Mean ± S.D.]: 600R X-ray, 100 µg/day s.c. pre-administration. On the procedure: In the same manner as in Experimental Examples 1 and 2, mice were irradiated with X-rays for 6 minutes. For a period of consecutive 14 days from 2 days before irradiation, the animals were subcutaneously administered, once a day, with 100 µg/day of FTS·CH₃COOH·2H₂O as medicament.
The body weight of each experimental group of mice in Experimental Example 3 was measured on consecutive days for observation of changes in weight.

Square brackets hold non-standard residues; d marks the D form. Peptide text beside a SMILES is read from it. pGlu = O=C1CC[C@@H](C(=O)O)N1

Turning to `C[C@H](NC(=O)[C@@H]1CCC(=O)N1)C(=O)N[C@@H](CCCCN)C(=O)N[C@@H](CO)C(=O)N[C@@H](CCC(N)=O)C(=O)NCC(=O)NCC(=O)N[C@@H](CO)C(=O)N[C@@H](CC(N)=O)C(=O)O` [medicament, pGlu-Ala-Lys-Ser-Gln-Gly-Gly-Ser-Asn] ([pGlu]AKSQGGSN-OH), the toxicity result with ddy male mice (50 mg/kg subcutaneously for consecutive 14 days) and with ddy male mice (100 mg/kg subcutaneously for consecutive 14 days) was “No toxicity was observed” throughout. For the same compound, the “toxicity (external check)” value in the data set on ddy male mice (100 mg/kg subcutaneously every day for consecutive 14 days, mice) is on record as “no abnormal symptom was found by external check”. The “development of radiation-induced cancers” value in data set [1] was “inhibits the development of radiation-induced cancers in mice”. Also, the “inhibition of body-weight loss” value with mice (compared with the control group) is given as “significant inhibition of body-weight loss”. In the data set on mice (over a period of thirty days, depending on the dose of radiation, all mice in control group died), the “% survival” value is 40 - 100%. Moreover, the life span-extending effect entry in the data set on mice (versus control group) is listed as “significant or marked life span-extending effect”. For the same compound, the “body weight (g) [Mean ± S.D.]” value in data set [2] (1 day after irradiation) is given as 27.8±1.5 (15) g; in data set [2] (3 days after irradiation), 27.7±1.1 (15) g; in data set [2] (5 days after irradiation), 27.9±1.1 (15) g; in data set [2] (7 days after irradiation), 28.8±1.2 (10) g; in data set [2] (9 days after irradiation), 29.8±1.0 (10) g; in data set [2] (11 days after irradiation), 30.2±0.9 (10) g. In addition, the “body weight (g) [Mean ± S.D.]” value is given as 29.6±0.7 (10) g in data set [2] (13 days after irradiation); 28.3±0.8 (10) g in data set [2] (15 days after irradiation); 28.2±1.0 (10) g in data set [2] (17 days after irradiation); 29.1±0.8 (10) g in data set [2] (19 days after irradiation); 28.5±1.4 (10) g in data set [2] (29 days after irradiation). Besides, in data set [2] (600R X-rays, summary of Table 5), the “body weight versus control group” value is “evidently weighed more than the control group”.
